Assay results published in patent publication US9545105B2, “1-(heterocyclic carbonyl) piperidines” (BAYER INTELLECTUAL PROPERTY GMBH, priority 2010, dated 2017).

What was measured:
[1] = log P by HPLC on reversed-phase column (C 18), EEC Directive 79/831 Annex V.A8; format: physicochemical; conditions: HPLC on reversed-phase column (C 18); 40° C.; 0.1% aqueous formic acid and acetonitrile; linear gradient 10% to 90% acetonitrile
Protocol: In table 1, the log P values were determined in accordance with EEC Directive 79/831 Annex V.A8 by HPLC (High Performance Liquid Chromatography) on a reversed-phase column (C 18), using the method described below: Temperature: 40° C.; Mobile phases: 0.1% aqueous formic acid and acetonitrile; linear gradient from 10% acetonitrile to 90% acetonitrile. Calibration was carried out using unbranched alkan-2-ones (comprising 3 to 16 carbon atoms) with known log P values (determination of the log P values by the retention times using linear interpolation between two successive alkanones). lambda-max-values were determined using UV-spectra from 200 nm to 400 nm and the peak values of the chromatographic signals.

[2] = system: Pyrenophora teres; assay: In vivo preventive test on Pyrenophora teres (barley); conditions: 500 ppm of active ingredient, evaluated 7-9 days after inoculation
Protocol: Solvent: 49 parts by weight of N,N-dimethylformamide Emulsifier: 1 part by weight of alkylaryl polyglycol ether To produce a suitable preparation of active compound, 1 part by weight of active compound is mixed with the stated amounts of solvent and emulsifier, and the concentrate is diluted with water to the desired concentration. To test for preventive activity, young plants are sprayed with the preparation of active compound at the stated rate of application. One day after this treatment, the plants are inoculated with an aqueous spore suspension of Pyrenophora teres. The plants remain for 48 hours in an incubation cabinet at 22° C. and a relative atmospheric humidity of 100%. Then the plants are placed in a greenhouse at a temperature of approximately 20° C. and a relative atmospheric humidity of approximately 80%. The test is evaluated 7-9 days after the inoculation. 0% means an efficacy which corresponds to that of the untreated control while an efficacy of 100% means that no disease is observed.

[3] = system: Alternaria solani; assay: In vivo preventive test on Alternaria solani (tomato); conditions: 500 ppm of active ingredient, evaluated 7 days after inoculation
Protocol: Solvent: 49 parts by weight of N,N-dimethylformamide Emulsifier: 1 part by weight of Alkylarylpolyglycolether To produce a suitable preparation of active compound, 1 part by weight of active compound is mixed with the stated amounts of solvent and emulsifier, and the concentrate is diluted with water to the desired concentration. To test for preventive activity, young plants are sprayed with the preparation of active compound at the stated rate of application. One day after this treatment, the plants are inoculated with an aqueous spore suspension of Alternaria solani. The plants remain for one day in an incubation cabinet at approximately 22° C. and a relative atmospheric humidity of 100%. Then the plants are placed in an incubation cabinet at approximately 20° C. and a relative atmospheric humidity of 96%. The test is evaluated 7 days after the inoculation. 0% means an efficacy which corresponds to that of the untreated control while an efficacy of 100% means that no disease is observed.

Structure (SMILES)	logP [1]	Efficacy [2] [%]	Efficacy [3] [%]
Cc1cc(C(=O)N2CCCCC2c2cccc(Cl)c2Cl)c(C)o1 (centres unmarked) [Example 71]	4.29	80	80
Cc1cc(C(=O)N2CCCCC2c2ccc(Cl)cc2Cl)c(C)o1 (centres unmarked) [Example 79]	4.54	80	
Cc1cc(C(=O)N2CCCCC2c2cc(Cl)ccc2Cl)c(C)o1 (centres unmarked) [Example 84]	4.36	90	
CCc1noc(C)c1C(=O)N1CCCCC1c1cccc(Oc2ccccc2)c1 (centres unmarked) [Example 110]	4.16		78
CCc1nn(C)c(F)c1C(=O)N1CCCCC1c1cccc(Oc2ccccc2)c1 (centres unmarked) [Example 112]	3.96		94
CCc1nn(C)c(F)c1C(=O)N1CCCCC1Cc1ccccc1 (centres unmarked) [Example 131]	2.92	100	
Cc1cc(C(=O)N2CCCCC2Cc2ccccc2C)c(C)o1 (centres unmarked) [Example 141]	3.87		90
Cc1cccc(CC2CCCCN2C(=O)c2cc(C)oc2C)c1 (centres unmarked) [Example 143]	3.96		80
Cc1ccc(CC2CCCCN2C(=O)c2cc(C)oc2C)cc1 (centres unmarked) [Example 146]	3.99		95
Cc1nc(C(F)F)c(C(=O)N2CCCCC2Cc2cccc(F)c2)s1 (centres unmarked) [Example 151]	3.19		95
Cc1cc(C(=O)N2CCCCC2Cc2ccc(F)cc2)c(C)o1 (centres unmarked) [Example 155]	3.57		78
COc1ccccc1CC1CCCCN1C(=O)c1sc(C)nc1C(F)F (centres unmarked) [Example 159]	3.33	90	

More lines, main results first:

logP [1]	Structure (SMILES)	Efficacy [2] [%]	Efficacy [3] [%]
3.37	Cc1ccccc1C1CCCCN1C(=O)c1c(C(F)F)nn(C)c1Cl (centres unmarked) [Example 5]	95	90
3.87	Cc1ccc(C2CCCCN2C(=O)c2c(C(F)F)nn(C)c2Cl)cc1C (centres unmarked) [Example 8]	90	94
4.27	Cc1cc(C)cc(C2CCCCN2C(=O)c2c(C(F)(F)F)cn(C)c2F)c1 (centres unmarked) [Example 34]	100	90
3.48	Cn1nc(C(F)F)c(C(=O)N2CCCCC2c2ccccc2Cl)c1Cl (centres unmarked) [Example 40]	95	95
3.60	Cn1nc(C(F)F)c(C(=O)N2CCCCC2c2cccc(Cl)c2)c1Cl (centres unmarked) [Example 47]	100	100
3.67	Cn1nc(C(F)F)c(C(=O)N2CCCCC2c2ccc(Cl)cc2)c1Cl (centres unmarked) [Example 55]	80	95
3.33	Cc1cc(C(=O)N2CCCCC2c2ccc3c(c2)OCO3)c(C)o1 (centres unmarked) [Example 58]		78
2.73	CCc1nn(C)c(F)c1C(=O)N1CCCCC1c1ccc2c(c1)OCO2 (centres unmarked) [Example 59]	70	78
2.44	Cc1nn(C)c(F)c1C(=O)N1CCCCC1c1ccc2c(c1)OCO2 (centres unmarked) [Example 60]	80	94
2.75	Cn1nc(C(F)F)c(C(=O)N2CCCCC2c2ccc3c(c2)OCCO3)c1F (centres unmarked) [Example 65]	100	90
3.62	CCc1nn(C)c(F)c1C(=O)N1CCCCC1c1cccc(Cl)c1Cl (centres unmarked) [Example 72]	95	95
4.16	Cc1cc(C(=O)N2CCCCC2c2ccc(Br)cc2)c(C)o1 (centres unmarked) [Example 100]	70	
3.51	CCc1nn(C)c(F)c1C(=O)N1CCCCC1c1ccc(Br)cc1 (centres unmarked) [Example 102]	100	
4.36	Cc1cc(C(=O)N2CCCCC2c2cccc(I)c2)c(C)o1 (centres unmarked) [Example 116]		78
4.44	CCC(c1ccccc1Cl)C1CCCCN1C(=O)c1c(C(F)F)nn(C)c1Cl (centres unmarked) [Example 161]	94	
